Experimental data: US20090004474A1, “Lyocell fibers with anti-microbial activity” (Weyerhaeuser Co., priority 2007, published 2009)

Tests used:
C. Albicans = assay: Growth medium study, antimicrobial test of meltblown fibers against C. albicans; assay type: cell-based; conditions: compared to a control at the same time
Experimental: Growth Medium Study Procedure
C. albicans: Prep Culti-Loop in 1.0 ml of sterile dilute PBS
ATCC 10231 Solution for 10 min. Streak onto SDA and grow for 24 hours @ 35 C
a. Prepare 9.0 ml dilute PBS tubes. Remove (wash) each culture organism from slants and add to PBS tubes.
Adjust so the turbidity of the culture matches a 0.5 McFarland solution (In BAM Media Pages). This is the stock culture solution. (S. aureus & E. coli, C. albicans.)
c. For C. albicans add 1.0 ml stock culture solution to 1.0 liter of MGM. (about […] final population)
6. Specialized MGM solutions for each Organism: • a. S. aureus: 94.4 ml stock PBS+849.6 DI water; adjust pH & sterilize. (or […] pre-diluted PBS Stock solution). (2X+2)200=2000 ml for 4. • ADD: 1.0 ml MSM • 50 ml BME vitamins. • 5 ml 1% Peptone. • 1.0 ml diluted Bacterial Culture (pre-made) • b. E. coli: 94.9 ml stock PBS+854.1 ml DI water; adjust pH & sterilize. (or 949 ml pre-diluted PBS Stock solution). (2X+2)200=2000 ml for 4. • ADD: 1.0 ml MSM • 50 ml BME vitamins. • 1.0 ml diluted Bacterial Culture (pre-made) • c. C. albicans: 92.9 ml stock PBS+836.1 ml DI water; adjust pH & sterilize. (or 929 ml pre-diluted PBS Stock solution). (2X+2)200=2000 ml for 4. • ADD: 1.0 ml MSM • 50 ml BME vitamins. • 20 ml 10% Peptone. • 10 ml 10% (NH4)2SO4 • 1.0 ml of Undiluted Bacterial Culture (pre-made) 7. Product to test:
a. […]

E coli = assay: Growth medium study, antimicrobial test of meltblown fibers against E. coli; assay type: cell-based; conditions: compared to a control at the same time; for reduction of E. coli colony forming units at twenty four hours compared to a control: 24 hours
Experimental: E. coli: Prep Culti-Loop in 1.0 ml sterile TSB for 10 min.
ATCC 8739 Streak to TSA slant and grow for 24 hours @ 35 C
For S. aureus and E. coli, make 1:100 dilution of stock culture solution, and add 1.0 ml of the diluted solution to 1.0 liter of MGM.
S. aureus: 94.4 ml stock PBS+849.6 DI water; adjust pH & sterilize. (or 994 ml pre-diluted PBS Stock solution). (2X+2)200=2000 ml for 4. • ADD: 1.0 ml MSM • 50 ml BME vitamins. • 5 ml 1% Peptone. • 1.0 ml diluted Bacterial Culture (pre-made) • b. E. coli: 94.9 ml stock PBS+854.1 ml DI water; adjust pH & sterilize. (or 949 ml pre-diluted PBS Stock solution). (2X+2)200=2000 ml for 4. • ADD: 1.0 ml MSM • 50 ml BME vitamins. • 1.0 ml diluted Bacterial Culture (pre-made) • c. C. albicans: 92.9 ml stock PBS+836.1 ml DI water; adjust pH & sterilize. (or 929 ml pre-diluted PBS Stock solution). (2X+2)200=2000 ml for 4. • ADD: 1.0 ml MSM • 50 ml BME vitamins. • 20 ml 10% Peptone. • 10 ml 10% (NH4)2SO4 • 1.0 ml of Undiluted Bacterial Culture (pre-made) 7. Product to test:
Prep enough sterile 250 Plastic Bottles to handle 2 repetitions of each organism plus pos. and neg. control. (45 flasks are needed to test 6 products.) • B. Label all Plastic Bottles with organism (Staph, E. coli, C alb.), plus Sequential Number (W-1,W-2 . . . , W-45). • c. Add 2.0 gm of each product to be tested to each Plastic Bottle (or a sterile blender if Sample is not soft), then add 200 ml of inoculated MGM. Incubate, with shaking (in wire milk case—attached to shaker waterbath—plus one or two plastic cases) for 4 and 24 hours at 37 C Run duplicate tests. […] Run two bottles for each organism containing 200 ml of inoculated MGM, without Weyerhaeuser Sample. These are Blanks. • f. Run positive controls, TSB in place of Sample (see below) for each organism type. […] Incubation and counting. • a. […]

Row | SMILES | reduction of C. albicans count at four hours compared to a control (C. Albicans; 4 hours) | reduction of C. albicans count at twenty four hours compared to a control (C. Albicans; 24 hours) | reduction of E. coli colony forming units at twenty four hours compared to a control (E coli) | reduction of E. coli colony forming units at four hours compared to a control (E coli; 4 hours)
1 | [O]=[Zn] [Zinc oxide] | at least ninety five | at least ninety five | at least ninety five | –
2 | O=C([O-])[O-].[Ca+2] [calcium carbonate, Calcium carbonate] | – | – | more than ninety five | more than ninety five
